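Assay format: 96-well plates, 48-hour exposure. The concentration for 50% growth inhibition is given as GI50.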 Active and inactive are the calls of the source. Rule as the data show it: active = GI50 up to about 1.1 µM and inactive = higher.
Key:
Assay in all cases: NCI tumour cell line growth inhibition, 48 h
[1] = tested on: KM-20L2
[2] = tested on: RXF 631
[3] = tested on: M19-MEL
[4] = tested on: DMS-273
[5] = tested on: HOP-18
[6] = tested on: SNB-78
[7] = tested on: DLD-1
[8] = tested on: DMS-114
[9] = tested on: XF498

SMILES | GI50 [1] | GI50 [2] | GI50 [3] | GI50 [4] | GI50 [5] | GI50 [6] | GI50 [7] | GI50 [8] | GI50 [9]
CC(C)=CC(=O)Cc1nc2cc(C)c(C)cc2[nH]c1=O | > 100 µM (inactive) | > 100 µM (inactive) | > 100 µM (inactive) | > 100 µM (inactive) | > 100 µM (inactive) | > 100 µM (inactive) | > 100 µM (inactive) | – | –
Cc1[nH]nc2c1C(=O)C=C(N(CCO)c1ccccc1)C2=O | – | – | > 100 µM (inactive) | > 100 µM (inactive) | > 100 µM (inactive) | > 100 µM (inactive) | > 100 µM (inactive) | > 100 µM (inactive) | –
CCN(CC)CCNC(=O)c1cccc2nc3ccccc3nc12 | 13.6 µM (inactive) | – | – | 7.26 µM (inactive) | > 26.4 µM (inactive) | 21.4 µM (inactive) | > 26.7 µM (inactive) | 7.85 µM (inactive) | –
CC(=O)C1=CSC2[C@H](NC(=O)Cc3ccccc3)C(=O)N2C1C(=O)OC(c1ccccc1)c1ccccc1 (some centres not stated) | – | > 100 µM (inactive) | 96.4 µM (inactive) | 67.9 µM (inactive) | – | > 100 µM (inactive) | > 100 µM (inactive) | 84.3 µM (inactive) | > 100 µM (inactive)
Sc1nnc(COc2ccc(Cl)cc2)[nH]1 | > 100 µM (inactive) | > 100 µM (inactive) | > 100 µM (inactive) | > 100 µM (inactive) | – | > 100 µM (inactive) | > 100 µM (inactive) | > 100 µM (inactive) | –
CC1=NN(C(=O)c2ccccc2O)C(=O)/C1=C/c1cccc([N+](=O)[O-])c1 | 15.6 µM (inactive) | – | – | – | – | > 100 µM (inactive) | 0.459 µM (active) | 1.66 µM (inactive) | –
O=C(CCc1n[nH]c(=S)o1)Nc1ccccc1C(F)(F)F | > 100 µM (inactive) | > 100 µM (inactive) | > 100 µM (inactive) | > 100 µM (inactive) | > 100 µM (inactive) | > 100 µM (inactive) | > 100 µM (inactive) | > 100 µM (inactive) | –
C=C(C)[C@@H]1CC=C(CO)CC1 [PERILLYL ALCOHOL] | 265 µM (inactive) | 565 µM (inactive) | 182 µM (inactive) | – | – | 200 µM (inactive) | 220 µM (inactive) | 124 µM (inactive) | 123 µM (inactive)
CCOC(=O)C(/C(=N/NC(=O)OC)C(=O)Nc1ccc(C(C)=O)cc1)c1cnc2ccccc2n1 (configuration not stated) | > 100 µM (inactive) | > 100 µM (inactive) | > 100 µM (inactive) | – | > 100 µM (inactive) | > 100 µM (inactive) | > 100 µM (inactive) | > 100 µM (inactive) | > 100 µM (inactive)
O=c1c2cccc3cccc(c4n1CCCN=4)c32 | > 100 µM (inactive) | > 100 µM (inactive) | > 100 µM (inactive) | > 100 µM (inactive) | > 100 µM (inactive) | > 100 µM (inactive) | > 100 µM (inactive) | > 100 µM (inactive) | > 100 µM (inactive)
COC(=O)c1cc(OC(C)=O)c2c(OC)ccc(OC)c2c1 | > 100 µM (inactive) | – | > 100 µM (inactive) | > 100 µM (inactive) | – | > 100 µM (inactive) | > 100 µM (inactive) | > 100 µM (inactive) | > 100 µM (inactive)
C=CCCc1cc(OC)ccc1CN(C)C(C)(C)CO | > 100 µM (inactive) | – | > 100 µM (inactive) | > 100 µM (inactive) | > 100 µM (inactive) | > 100 µM (inactive) | > 100 µM (inactive) | > 100 µM (inactive) | –
COC(=O)c1cc(C)c(C)c2c1NC(=O)CNC2=O | > 100 µM (inactive) | – | > 100 µM (inactive) | > 100 µM (inactive) | – | > 100 µM (inactive) | > 100 µM (inactive) | > 100 µM (inactive) | > 100 µM (inactive)
CCOC(=O)NC(=O)c1cn(CCN2CCN(C(=O)CCCCCCCCCCNc3ncnc4c3ncn4C3OC(CO)C(O)C3O)CC2)c(=O)[nH]c1=O (configuration not stated) | > 100 µM (inactive) | > 100 µM (inactive) | – | – | – | > 100 µM (inactive) | > 100 µM (inactive) | > 100 µM (inactive) | > 100 µM (inactive)
CC1OC(=O)N(CCCC=C2SCCCS2)C1=O (configuration not stated) | > 100 µM (inactive) | – | > 100 µM (inactive) | > 100 µM (inactive) | > 100 µM (inactive) | > 100 µM (inactive) | – | > 100 µM (inactive) | > 100 µM (inactive)
CC(=O)NNc1nc(C)c(C(/C=C/c2ccc(Cl)cc2)=N/NC(=S)NN)s1 | > 100 µM (inactive) | > 100 µM (inactive) | > 100 µM (inactive) | > 100 µM (inactive) | > 100 µM (inactive) | > 100 µM (inactive) | > 100 µM (inactive) | > 100 µM (inactive) | > 100 µM (inactive)
CN(C)CC1CCC(CN(C)C)C(=O)C1=O (configuration not stated) | 16.4 µM (inactive) | – | 19 µM (inactive) | 15.8 µM (inactive) | 1.5 µM (inactive) | – | 3.05 µM (inactive) | 6.62 µM (inactive) | 2.54 µM (inactive)
CC(Oc1ccc(OCC2CCCCC2)cc1)C(=O)NCCO (configuration not stated) | – | – | > 100 µM (inactive) | > 100 µM (inactive) | > 100 µM (inactive) | > 100 µM (inactive) | > 100 µM (inactive) | 39.8 µM (inactive) | –
CN(C)/N=N/c1ccc(C(N)=O)cc1 | > 100 µM (inactive) | – | > 100 µM (inactive) | > 100 µM (inactive) | > 100 µM (inactive) | > 100 µM (inactive) | > 100 µM (inactive) | > 100 µM (inactive) | > 100 µM (inactive)
COc1cc(C(=O)Nc2cccc3ccccc23)c(Br)c(OC)c1OC | > 100 µM (inactive) | > 100 µM (inactive) | 58.6 µM (inactive) | – | 4.33 µM (inactive) | – | > 100 µM (inactive) | 30.7 µM (inactive) | –
Cn1c2c(c3ccccc31)CCN(CCCN1CCN(c3cccc(Cl)c3)CC1)C2=O | 2.87 µM (inactive) | 24.7 µM (inactive) | 20.2 µM (inactive) | 24.1 µM (inactive) | 22.9 µM (inactive) | – | 23 µM (inactive) | 14.2 µM (inactive) | 10.4 µM (inactive)
CC(C)C(Sc1nc(-c2ccccc2)c(-c2ccccc2)[nH]1)C(=O)NN (configuration not stated) | > 100 µM (inactive) | – | > 100 µM (inactive) | > 100 µM (inactive) | – | > 100 µM (inactive) | > 100 µM (inactive) | 99.8 µM (inactive) | 72.8 µM (inactive)
COc1cc(C(=O)O)cc2c1[nH]c1ccccc12 [MUKOEIC ACID] | > 25 µM (inactive) | – | > 25 µM (inactive) | > 25 µM (inactive) | – | > 25 µM (inactive) | > 25 µM (inactive) | > 25 µM (inactive) | –
CCOC(=O)Cn1c(=O)n(C)c(=O)c2c1ncn2Cc1ccccc1 | > 100 µM (inactive) | – | > 100 µM (inactive) | > 100 µM (inactive) | – | > 100 µM (inactive) | > 100 µM (inactive) | > 100 µM (inactive) | 98.2 µM (inactive)
COC(=O)/C(=N\NC(N)=S)C(C(=O)OC)C(=O)C(=O)Nc1ccc(C)cc1 (configuration not stated) | > 100 µM (inactive) | > 100 µM (inactive) | > 100 µM (inactive) | > 100 µM (inactive) | > 100 µM (inactive) | > 100 µM (inactive) | > 100 µM (inactive) | > 100 µM (inactive) | > 100 µM (inactive)
COc1ccc(/C=N\O[Si](C)(C)C(C)(C)C)cc1O[Si](C)(C)C(C)(C)C | 28.8 µM (inactive) | 21.1 µM (inactive) | 18.2 µM (inactive) | 19.3 µM (inactive) | 15.3 µM (inactive) | 19.3 µM (inactive) | 17.9 µM (inactive) | 18.5 µM (inactive) | 18.4 µM (inactive)
OCCCCn1cnc2c(O)ncnc21 | > 100 µM (inactive) | – | > 100 µM (inactive) | – | > 100 µM (inactive) | > 100 µM (inactive) | > 100 µM (inactive) | > 100 µM (inactive) | –
S=c1[nH]c2ccc(Br)cc2c(=S)n1-c1ccccc1 | 35.2 µM (inactive) | 26 µM (inactive) | 17.6 µM (inactive) | 17.1 µM (inactive) | 16.5 µM (inactive) | 49.3 µM (inactive) | 28.7 µM (inactive) | 16.9 µM (inactive) | 19.1 µM (inactive)
COc1ccc([C@@H]2CC(=O)N2)cc1 | > 100 µM (inactive) | – | – | > 100 µM (inactive) | > 100 µM (inactive) | > 100 µM (inactive) | > 100 µM (inactive) | > 100 µM (inactive) | > 100 µM (inactive)
